Assays:
Assay type in all cases: in vivo
Corn [1] = test: Pre-emergent control of seed germination, soil drench; conditions: about 2 weeks
From the text: (§1) Four parts by weight of the compound, 0.08 part of sorbitan trioleate (Span 85), and 0.02 part of a sorbitan monooleate polyoxyethylene derivative (Tween 80) are dipersed in 40 milliliters of acetone to produce a concentrate composition in the form of a water-dispersible liquid containing the predetermined oxirane compound as the sole active agent.
(§2) A portion of each of these concentrate compositions were separately dispersed in portions of water to provide aqueous compositions, containing 0.44 pound of the oxirane compound per 100 gallons of ultimate aqueous mixture.
(§3) The aqueous compositions were then employed for the treatment of seed beds of good agricultural soil which had been prepared and seeded with the seeds of various grass species and broadleaf plants. The grass species included white winter wheat, cultured rice, pigweeds, crabgrass, cheat grass, wild oats, Johnson grass, barnyard grass and yellow foxtail; and the broadleaf plants included corn. In the treating operations, a predetermined quantity of each of the compositions was applied to separate seedbeds as a soil drench at a rate of about 0.43 acre inch of aqueous composition per acre. The quantities were controlled to supply a substantial uniform dosage in a seedbed equivalent to 1.0, 2.0 and 5.0 pounds of the oxirane compound per acre. These dosages correspond, respectively, to a concentration, within the soil depth penetrated of about 1.6, 3.2 and 8.0 parts by weight of the oxirane compound per million parts by weight of soil. Other seedbeds were similarly seeded with the named plant species but were left untreated to serve as checks.
After about 2 weeks the seedbeds were examined to ascertain what control of the growth of seeds had been obtained. […]
(§4) An aqueous composition containing 2-(α,α,α -trifluoro-m-tolyl)-2-(2,2,2-trichloroethyl)oxirane was prepared as described in Example 32. The composition was then employed according to the procedures of Example 32 except that lower concentrations of the oxirane compound were employed in the composition.
(§5) The percent control of the various plant species at the employed dosage rate of the 2-(α,α,α-trifluoro-m-tolyl)- 2-(2,2,2-trichloroethyl) supplied by the composition is set forth in the following Table IV.

White Winter Wheat [2] = test: as above; conditions: about 2 weeks
From the text: as §1, §2, §3
(§6) After about 2 weeks the seedbeds were examined to ascertain what control of the growth of seeds had been obtained.
as §4, §5

Cultured Rice = test: as above; conditions: about 2 weeks
From the text: as §1, §2, §3, §6, §4, §5

Corn [3] = test: Post-emergent control, foliage spray; conditions: about two weeks
Description: (§7) An aqueous composition containing 2-(m-bromophenyl)- 2-(2,2,2-trichloroethyl)oxirane was prepared as described in Example 32. Separate portions of this composition were thereafter dispersed in a further quantity of water to prepare aqueous spray compositions containing 250, 500, 1000, 2000 and 4000 parts, respectively of the compound per million parts by weight of ultimate treating composition. These compositions were applied as foliage sprays to various grass and broadleaf plant species, the plants being of two to four inches in height and growing in seed beds. The treatments were carried out with conventional spray equipment, the plants being sprayed to the point of run-off. Similar beds of the plant species were left untreated to serve as checks. After about two weeks, the beds were examined to ascertain what control of the growth of plants had been obtained. The plant species employed, together with the percent control obtained at the employed dosage rate of the composition is set forth in the following Table V.

Pinto Beans = test: Post-emergent control, foliage spray; conditions: about two weeks
Description: as §7

White Winter Wheat [4] = test: Post-emergent control, foliage spray; conditions: about two weeks
Description: as §7

Crabgrass [5] = test: Post-emergent control, foliage spray; conditions: about two weeks
Description: as §7

Cotton = test: Post-emergent control, foliage spray; conditions: about two weeks
Description: as §7

Barnyard Grass = test: Post-emergent control, foliage spray; conditions: about two weeks
Description: as §7

Wild Oats = test: Post-emergent control, foliage spray; conditions: about two weeks
Description: as §7

Johnson Grass [6] = test: Post-emergent control, foliage spray; conditions: about two weeks
Description: as §7

Soybean = test: Post-emergent control, foliage spray; conditions: about two weeks
Description: as §7

Crabgrass [7] = test: Pre-emergent control of seed germination, soil drench; conditions: for Percent Pre-Emergent Control of Seed Germination: Crabgrass, about 2 weeks; for % Control: pre-emergence, Crab Grass
Johnson Grass [8] = test: as above; conditions: Johnson Grass; for Percent Pre-Emergent Control of Seed Germination: about 2 weeks; for % Control: pre-emergence
Water-Grass = test: Comparative pre-emergence herbicide test
From the text: as §1, §2, §3, §6
Separate aqueous compositions containing the 2-(m-chlorophenyl)-2-(2,2,2-trichloroethyl)oxirane (Cmpd. A) and 2-(m-bromophenyl)-2-(2,2,2-trichloroethyl)oxirane (Cmpd. C) compounds of the present invention were prepared as in Example 32 for comparative per-emergence herbicide tests against noxious grass species with the known 2 -(p-chlorophenyl)-2-(2,2,2-trichloroethyl)oxirane (Cmpd. B) compound and 2-(p-bromophenyl)-2-(2,2,2-trichloroethyl)oxirane (Cmpd. D). The pre-emergence tests were conducted in Example 32 and the results of such tests are set forth below in Table III.

## ClC(Cl)(Cl)CC1(c2cccc(Br)c2)CO1 (centres unmarked) [Example 3, 2-(m-bromophenyl)-2-(2,2,2-trichloroethyl)oxirane]
Corn [1]; 1.0 pounds per surface acre
  Percent Pre-Emergent Control of Seed Germination: 30%
Corn [1]; 2.0 pounds per surface acre
  Percent Pre-Emergent Control of Seed Germination: 95%
Corn [1]; 5.0 pounds per surface acre
  Percent Pre-Emergent Control of Seed Germination: 95%
White Winter Wheat [2]; 1.0 pounds per surface acre
  Percent Pre-Emergent Control of Seed Germination: 100%
White Winter Wheat [2]; 2.0 pounds per surface acre
  Percent Pre-Emergent Control of Seed Germination: 100%
White Winter Wheat [2]; 5.0 pounds per surface acre
  Percent Pre-Emergent Control of Seed Germination: 100%
Cultured Rice; 2.0 pounds per surface acre
  Percent Pre-Emergent Control of Seed Germination: 100%
Cultured Rice; 5.0 pounds per surface acre
  Percent Pre-Emergent Control of Seed Germination: 100%
Corn [3]; 250 parts per million
  Percent Post-Emergent Control of Seed Germination: 0%
Corn [3]; 500 parts per million
  Percent Post-Emergent Control of Seed Germination: 30%
Corn [3]; 1000 parts per million
  Percent Post-Emergent Control of Seed Germination: 50%
Corn [3]; 2000 parts per million
  Percent Post-Emergent Control of Seed Germination: 95%
Corn [3]; 4000 parts per million
  Percent Post-Emergent Control of Seed Germination: 95%
Pinto Beans; 250 parts per million
  Percent Post-Emergent Control of Seed Germination: 50%
Pinto Beans; 500 parts per million
  Percent Post-Emergent Control of Seed Germination: 50%
Pinto Beans; 1000 parts per million
  Percent Post-Emergent Control of Seed Germination: 50%
Pinto Beans; 2000 parts per million
  Percent Post-Emergent Control of Seed Germination: 75%
Pinto Beans; 4000 parts per million
  Percent Post-Emergent Control of Seed Germination: 75%
White Winter Wheat [4]; 250 parts per million
  Percent Post-Emergent Control of Seed Germination: 0%
White Winter Wheat [4]; 500 parts per million
  Percent Post-Emergent Control of Seed Germination: 0%
White Winter Wheat [4]; 1000 parts per million
  Percent Post-Emergent Control of Seed Germination: 50%
White Winter Wheat [4]; 2000 parts per million
  Percent Post-Emergent Control of Seed Germination: 50%
White Winter Wheat [4]; 4000 parts per million
  Percent Post-Emergent Control of Seed Germination: 50%
Crabgrass [5]; 250 parts per million
  Percent Post-Emergent Control of Seed Germination: 30%
Crabgrass [5]; 500 parts per million
  Percent Post-Emergent Control of Seed Germination: 65%
Crabgrass [5]; 1000 parts per million
  Percent Post-Emergent Control of Seed Germination: 95%
Crabgrass [5]; 2000 parts per million
  Percent Post-Emergent Control of Seed Germination: 95%
Crabgrass [5]; 4000 parts per million
  Percent Post-Emergent Control of Seed Germination: 95%
Cotton; 250 parts per million
  Percent Post-Emergent Control of Seed Germination: 0%
Cotton; 500 parts per million
  Percent Post-Emergent Control of Seed Germination: 0%
Cotton; 1000 parts per million
  Percent Post-Emergent Control of Seed Germination: 50%
Cotton; 2000 parts per million
  Percent Post-Emergent Control of Seed Germination: 50%
Cotton; 4000 parts per million
  Percent Post-Emergent Control of Seed Germination: 65%
Barnyard Grass; 250 parts per million
  Percent Post-Emergent Control of Seed Germination: 95%
Barnyard Grass; 500 parts per million
  Percent Post-Emergent Control of Seed Germination: 95%
Barnyard Grass; 1000 parts per million
  Percent Post-Emergent Control of Seed Germination: 95%
Barnyard Grass; 2000 parts per million
  Percent Post-Emergent Control of Seed Germination: 95%
Barnyard Grass; 4000 parts per million
  Percent Post-Emergent Control of Seed Germination: 95%
Wild Oats; 250 parts per million
  Percent Post-Emergent Control of Seed Germination: 50%
Wild Oats; 500 parts per million
  Percent Post-Emergent Control of Seed Germination: 70%
Wild Oats; 1000 parts per million
  Percent Post-Emergent Control of Seed Germination: 85%
Wild Oats; 2000 parts per million
  Percent Post-Emergent Control of Seed Germination: 85%
Wild Oats; 4000 parts per million
  Percent Post-Emergent Control of Seed Germination: 95%
Johnson Grass [6]; 250 parts per million
  Percent Post-Emergent Control of Seed Germination: 95%
Johnson Grass [6]; 500 parts per million
  Percent Post-Emergent Control of Seed Germination: 95%
Johnson Grass [6]; 1000 parts per million
  Percent Post-Emergent Control of Seed Germination: 95%
Johnson Grass [6]; 2000 parts per million
  Percent Post-Emergent Control of Seed Germination: 95%
Johnson Grass [6]; 4000 parts per million
  Percent Post-Emergent Control of Seed Germination: 95%
Soybean; 250 parts per million
  Percent Post-Emergent Control of Seed Germination: 30%
Soybean; 500 parts per million
  Percent Post-Emergent Control of Seed Germination: 30%
Soybean; 1000 parts per million
  Percent Post-Emergent Control of Seed Germination: 50%
Soybean; 2000 parts per million
  Percent Post-Emergent Control of Seed Germination: 75%
Soybean; 4000 parts per million
  Percent Post-Emergent Control of Seed Germination: 85%
Crabgrass [7]; 1.0 pounds per surface acre
  Percent Pre-Emergent Control of Seed Germination: 0%
Crabgrass [7]; 2.0 pounds per surface acre
  Percent Pre-Emergent Control of Seed Germination: 100%
Crabgrass [7]; 5.0 pounds per surface acre
  Percent Pre-Emergent Control of Seed Germination: 100%
Crabgrass [7]; 1/8 Lb/Acre
  % Control: 95%
Crabgrass [7]; 1/16 Lb/Acre
  % Control: 70%
Johnson Grass [8]; 1.0 pounds per surface acre
  Percent Pre-Emergent Control of Seed Germination: 95%
Johnson Grass [8]; 2.0 pounds per surface acre
  Percent Pre-Emergent Control of Seed Germination: 95%
Johnson Grass [8]; 5.0 pounds per surface acre
  Percent Pre-Emergent Control of Seed Germination: 100%
Johnson Grass [8]; 1/8 Lb/Acre
  % Control: 95%
Johnson Grass [8]; 1/16 Lb/Acre
  % Control: 95%
Water-Grass; 1/8 Lb/Acre
  % Control: 95%
Water-Grass; 1/16 Lb/Acre
  % Control: 90%
